# According to article PMC4511477 (Biochemistry, 2015):
# Where a chain is given by its changes, count along the chain named. Numbers in names are those of the source.
# T1: GltPh (Pyrococcus horikoshii, UniProt O59010)
# T1 sequence (O59010 1-417 limits assumed): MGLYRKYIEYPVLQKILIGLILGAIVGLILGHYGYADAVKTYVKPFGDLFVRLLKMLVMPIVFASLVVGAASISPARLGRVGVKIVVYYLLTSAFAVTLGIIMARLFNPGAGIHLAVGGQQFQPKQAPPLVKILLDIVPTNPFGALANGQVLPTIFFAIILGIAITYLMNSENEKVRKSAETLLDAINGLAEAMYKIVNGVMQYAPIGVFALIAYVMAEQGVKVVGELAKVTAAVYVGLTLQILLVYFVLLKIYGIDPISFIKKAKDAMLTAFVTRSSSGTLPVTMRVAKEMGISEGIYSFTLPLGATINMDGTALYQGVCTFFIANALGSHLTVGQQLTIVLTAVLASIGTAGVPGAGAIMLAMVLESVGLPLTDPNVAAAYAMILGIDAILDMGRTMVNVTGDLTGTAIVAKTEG
# T2: semisynthetic GltPh (Pyrococcus horikoshii, UniProt O59010, M385C)
# T2 sequence (O59010 1-417 M385C limits assumed): T1 sequence (O59010 1-417 limits assumed) with M385C
# B1: semisynthetic GltPh transporter (wild type sequence, M385C at the ligation site) (natural protein, Pyrococcus horikoshii)
# chain: MGLYRKYIEYPVLQKILIGLILGAIVGLILGHYGYADAVKTYVKPFGDLFVRLLKMLVMPIVFASLVVGAASISPARLGRVGVKIVVYYLLTSAFAVTLGIIMARLFNPGAGIHLAVGGQQFQPKQAPPLVKILLDIVPTNPFGALANGQVLPTIFFAIILGIAITYLMNSENEKVRKSAETLLDAINGLAEAMYKIVNGVMQYAPIGVFALIAYVMAEQGVKVVGELAKVTAAVYVGLTLQILLVYFVLLKIYGIDPISFIKKAKDAMLTAFVTRSSSGTLPVTMRVAKEMGISEGIYSFTLPLGATINMDGTALYQGVCTFFIANALGSHLTVGQQLTIVLTAVLASIGTAGVPGAGAIMLAMVLESVGLPLTDPNVAAAYACILGIDAILDMGRTMVNVTGDLTGTAIVAKTEGTGSG
# Experiments:
# GltPh = molecular target: T1, GltPh; experiment: […]-Asp uptake into proteoliposomes; assay type: biochemical; settings: read-out: % inhibition at 10 μM
# semisynthetic GltPh = molecular target: T2, semisynthetic GltPh; experiment: […]-Asp uptake into proteoliposomes; assay type: biochemical; settings: read-out: % inhibition at 10 μM
# cross-linking = molecular target: the molecule itself; experiment: cross-linking
Molecule,inhibition at 10 µM (GltPh) [%],inhibition at 10 µM (semisynthetic GltPh) [%],stoichiometry N (cross-linking)
NC(C(=O)O)C(OCc1ccccc1)C(=O)O (racemic) [TBOA],31 ± 10,42 ± 4,
B1,,,3
